Measured values published in patent publication US6444850B1, “Fungicidial compounds having a fluorovinyloxphyenyl moiety and process for the preparation thereof” (priority 1997, dated 2002).

Columns and labels:
Rhizoctonia solani AG-1 = test: Fungicidal activity against rice sheath blight (RSB) disease; conditions: 50 ppm, control value
[1] = tested on: Pyricularia oryzae Carvara KA301; format: in vivo; conditions: for C. V. (%) RCB: 50 ppm, control value, rice blast; for C. V. (%) Fungicidal Activities against RCB at 10 ppm / C. V. (%) Fungicidal Activities against RCB at 10 ppm (TABLE 6): sprayed on Nakdong rice plant, control value from lesion area
Botrytis cinerae = test: Fungicidal activity against cucumber gray mold rot (CGM) disease; format: in vivo; conditions: 50 ppm, control value
Experimental: Botrytis cinerae, which was isolated from cucumber infected thereby, was inoculated on a PDA agar medium and cultured under a 12L/12D cycle at 25° C. for 15 days to form spore. The spores were scraped, filtered through a gauze and then suspended in potato dextrose liquid medium at a concentration of 1×10^6 spore/ml. The spore suspension was sprayed on a cucumber plant having one leaf. The cucumber plant was held in a humidified room at 20° C. for 3 days. L.A. on a leaf was measured to calculate an C.V.

Phytophthora infestans = format: in vivo; conditions: 50 ppm; control value, tomato late blight
Puccinia recondita = test: Fungicidal activity against wheat leaf rust (WLR) disease; format: in vivo; conditions: for C. V. (%), Fungicidal Activities against WLB at 10 ppm: Table 8 (Test Example 5); for C. V. (%) WLR: 50 ppm, control value, wheat leaf rust
Erysiphae graminis = test: Fungicidal activity against barley powdery mildew (BPM) disease; format: in vivo; conditions: for C. V. (%) BPM: 50 ppm, control value, barley powdery mildew; for C. V. (%), Fungicidal activities against TLB at 10 ppm: Table 9 (Test Example 6)
Experimental: Erysiphae graminis was subcultured on a wheat plant in a laboratory. 15 g of barley seeds was sowed in a pot (diameter 6.5 cm) and cultured in a greenhouse for 7 days to obtain a barley plant having only a primary leaf. The barley plant was inoculated with spores by shaking thereover another plant infected by BPM. The inoculated barley plant was cultured in an incubator maintained at a temperature of 22 to 24° C. and a relative humidity of 50% for 7 days to induce BPM. L.A. on the leaf was measured to calculate an C.V.

COC=C(C(=O)OC)c1ccccc1COc1cccc(OC(F)=Cc2cc(C)c(C)cc2C)c1 [Compound 21]
C. V. (%) RSB (Rhizoctonia solani AG-1): 90% | C. V. (%) RCB [1]: 93% | C. V. (%) CGM (Botrytis cinerae): 33% | C. V. (%) TLB (Phytophthora infestans): 44% | C. V. (%), Fungicidal Activities against WLB at 10 ppm (Puccinia recondita): 90% | C. V. (%) WLR (Puccinia recondita): 96% | C. V. (%) BPM (Erysiphae graminis): 98%

CON=C(C(=O)OC)c1ccccc1COc1cccc(OC(F)=C(c2ccc(OC)cc2)C(F)(F)F)c1 [Compound 76]
C. V. (%) RSB (Rhizoctonia solani AG-1): 90% | C. V. (%) RCB [1]: 63% | C. V. (%) CGM (Botrytis cinerae): 0% | C. V. (%) TLB (Phytophthora infestans): 44% | C. V. (%), Fungicidal Activities against WLB at 10 ppm (Puccinia recondita): 99% | C. V. (%) WLR (Puccinia recondita): 96% | C. V. (%), Fungicidal activities against TLB at 10 ppm (Erysiphae graminis): 96% | C. V. (%) BPM (Erysiphae graminis): 99%

CON=C(C(=O)OC)c1ccccc1COc1cccc(OC(F)=C(c2cccc(C)c2)C(F)(F)F)c1 [Compound 51]
C. V. (%) RSB (Rhizoctonia solani AG-1): 60% | C. V. (%) RCB [1]: 41% | C. V. (%) CGM (Botrytis cinerae): 0% | C. V. (%) TLB (Phytophthora infestans): 3% | C. V. (%), Fungicidal Activities against WLB at 10 ppm (Puccinia recondita): 90% | C. V. (%) WLR (Puccinia recondita): 100% | C. V. (%), Fungicidal activities against TLB at 10 ppm (Erysiphae graminis): 98% | C. V. (%) BPM (Erysiphae graminis): 100%

COC=C(C(=O)OC)c1ccccc1COc1cccc(OC(F)=C(c2cccs2)C(F)(F)F)c1 [Compound 105]
C. V. (%) RSB (Rhizoctonia solani AG-1): 78% | C. V. (%) RCB [1]: 96% | C. V. (%) CGM (Botrytis cinerae): 0% | C. V. (%) TLB (Phytophthora infestans): 0% | C. V. (%), Fungicidal Activities against WLB at 10 ppm (Puccinia recondita): 96% | C. V. (%) WLR (Puccinia recondita): 100% | C. V. (%) BPM (Erysiphae graminis): 70%

COC=C(C(=O)OC)c1ccccc1COc1cccc(OC(F)=Cc2cccc(OC)c2)c1 [Compound 25]
C. V. (%) RSB (Rhizoctonia solani AG-1): 92% | C. V. (%) Fungicidal Activities against RCB at 10 ppm [1]: 95% | C. V. (%) Fungicidal Activities against RCB at 10 ppm (TABLE 6) [1]: 95% | C. V. (%) RCB [1]: 95% | C. V. (%) CGM (Botrytis cinerae): 0% | C. V. (%) TLB (Phytophthora infestans): 43% | C. V. (%), Fungicidal Activities against WLB at 10 ppm (Puccinia recondita): 99% | C. V. (%) WLR (Puccinia recondita): 100% | C. V. (%), Fungicidal activities against TLB at 10 ppm (Erysiphae graminis): 91% | C. V. (%) BPM (Erysiphae graminis): 98%

COC(=O)C(=CSC)c1ccccc1COc1cccc(OC(F)=Cc2ccc(Cl)cc2)c1 [Compound 40]
C. V. (%) RSB (Rhizoctonia solani AG-1): 70% | C. V. (%) RCB [1]: 73% | C. V. (%) CGM (Botrytis cinerae): 9% | C. V. (%) TLB (Phytophthora infestans): 33% | C. V. (%) WLR (Puccinia recondita): 83% | C. V. (%) BPM (Erysiphae graminis): 93%

COC=C(C(=O)OC)c1ccccc1COc1cccc(OC(F)=C(c2cccc(C(F)(F)F)c2)C(F)(F)F)c1 [Compound 83]
C. V. (%) RSB (Rhizoctonia solani AG-1): 50% | C. V. (%) RCB [1]: 25% | C. V. (%) CGM (Botrytis cinerae): 0% | C. V. (%) TLB (Phytophthora infestans): 11% | C. V. (%), Fungicidal Activities against WLB at 10 ppm (Puccinia recondita): 94% | C. V. (%) WLR (Puccinia recondita): 100% | C. V. (%), Fungicidal activities against TLB at 10 ppm (Erysiphae graminis): 100% | C. V. (%) BPM (Erysiphae graminis): 100%

CNC(=O)C(=NOC)c1ccccc1COc1cccc(OC(F)=C(c2ccccc2)C(F)(F)F)c1 [Compound 48]
C. V. (%) RSB (Rhizoctonia solani AG-1): 45% | C. V. (%) Fungicidal Activities against RCB at 10 ppm [1]: 100% | C. V. (%) Fungicidal Activities against RCB at 10 ppm (TABLE 6) [1]: 100% | C. V. (%) RCB [1]: 97% | C. V. (%) CGM (Botrytis cinerae): 28% | C. V. (%) TLB (Phytophthora infestans): 70% | C. V. (%), Fungicidal Activities against WLB at 10 ppm (Puccinia recondita): 100% | C. V. (%) WLR (Puccinia recondita): 100% | C. V. (%), Fungicidal activities against TLB at 10 ppm (Erysiphae graminis): 100% | C. V. (%) BPM (Erysiphae graminis): 98%

COC=C(C(=O)OC)c1ccccc1COc1cccc(OC(F)=C(c2cc(Cl)cc(Cl)c2)C(F)(F)F)c1 [Compound 102]
C. V. (%) RSB (Rhizoctonia solani AG-1): 45% | C. V. (%) RCB [1]: 0% | C. V. (%) CGM (Botrytis cinerae): 0% | C. V. (%) TLB (Phytophthora infestans): 3% | C. V. (%) WLR (Puccinia recondita): 96% | C. V. (%), Fungicidal activities against TLB at 10 ppm (Erysiphae graminis): 98% | C. V. (%) BPM (Erysiphae graminis): 100%

CNC(=O)C(=COC)c1ccccc1COc1cccc(OC(F)=Cc2ccc(Cl)cc2)c1 [Compound 38]
C. V. (%) RSB (Rhizoctonia solani AG-1): 5% | C. V. (%) RCB [1]: 33% | C. V. (%) CGM (Botrytis cinerae): 15% | C. V. (%) TLB (Phytophthora infestans): 33% | C. V. (%) WLR (Puccinia recondita): 0% | C. V. (%) BPM (Erysiphae graminis): 8%

CO/C=C(/C(=O)OC)c1ccccc1COc1cccc(OC(F)=C(c2cc(C)cc(C)c2)C(F)(F)F)c1 [Compound 67]
C. V. (%) RSB (Rhizoctonia solani AG-1): 50% | C. V. (%) RCB [1]: 80% | C. V. (%) CGM (Botrytis cinerae): 16% | C. V. (%) TLB (Phytophthora infestans): 25% | C. V. (%) WLR (Puccinia recondita): 100% | C. V. (%), Fungicidal activities against TLB at 10 ppm (Erysiphae graminis): 100% | C. V. (%) BPM (Erysiphae graminis): 100%

CON=C(C(=O)OC)c1ccccc1COc1cccc(OC(F)=C(c2ccc(Cl)cc2)C(F)(F)F)c1 [Compound 90]
C. V. (%) RSB (Rhizoctonia solani AG-1): 30% | C. V. (%) Fungicidal Activities against RCB at 10 ppm [1]: 93% | C. V. (%) Fungicidal Activities against RCB at 10 ppm (TABLE 6) [1]: 93% | C. V. (%) RCB [1]: 90% | C. V. (%) CGM (Botrytis cinerae): 25% | C. V. (%) TLB (Phytophthora infestans): 0% | C. V. (%) WLR (Puccinia recondita): 100% | C. V. (%), Fungicidal activities against TLB at 10 ppm (Erysiphae graminis): 97% | C. V. (%) BPM (Erysiphae graminis): 99%
